Test [1] deals with T1, Pancreatic triacylglycerol lipase (Sus scrofa, UniProt P00591).
T1 sequence (P00591 whole entry): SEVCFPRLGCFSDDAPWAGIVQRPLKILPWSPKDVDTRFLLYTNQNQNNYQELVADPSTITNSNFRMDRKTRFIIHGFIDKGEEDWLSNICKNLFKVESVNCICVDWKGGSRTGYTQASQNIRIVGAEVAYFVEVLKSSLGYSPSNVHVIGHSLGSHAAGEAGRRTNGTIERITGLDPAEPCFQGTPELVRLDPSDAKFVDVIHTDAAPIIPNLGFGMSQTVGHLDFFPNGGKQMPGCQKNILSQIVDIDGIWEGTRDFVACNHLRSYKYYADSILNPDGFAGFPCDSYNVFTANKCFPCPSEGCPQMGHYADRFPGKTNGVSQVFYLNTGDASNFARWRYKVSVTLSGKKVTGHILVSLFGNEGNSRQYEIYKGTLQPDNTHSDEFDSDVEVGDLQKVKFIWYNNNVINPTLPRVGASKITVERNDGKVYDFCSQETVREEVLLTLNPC
Nature of the test: Inhibition of porcine pancreatic lipase pre-incubated for 15 mins before p-nitrophenylbutyrate substrate addition by microplate reader based method.

Test [2] addresses T2, Pancreatic triacylglycerol lipase (Sus scrofa) (UniProt P00591).
T2 sequence (whole entry): T1 sequence (P00591 whole entry)
Nature of the test: Inhibition of porcine pancreatic lipase at 100 ug/ml pre-incubated for 15 mins before p-nitrophenylbutyrate substrate addition by microplate reader based method.

The target in test [3] is T2, Pancreatic triacylglycerol lipase (Sus scrofa). Nature of the test: Mixed type inhibition of porcine pancreatic lipase pre-incubated for 15 mins before p-nitrophenylbutyrate substrate addition by Lineweaver-Burk plot method.

As a reminder, the IC50 is the midpoint of a concentration-inhibition curve. One may read the inhibition as the change of the read-out against control, counted positive when it falls.

Molecules are shown by their SMILES. Calls of active or inactive are those of the source. The calls are words filed in the database; no cut-off is given here.

For `CC1(C)C=Cc2c(cc3occc(=O)c3c2O)O1`, the concentration for half-maximal inhibition (IC50) in test [1] is more than 100 µM. The compound also displayed an inhibition in test [2] of 27.5%.
For `O=C1c2c(cc(O)c(O)c2O)O[C@H](c2ccc(O)cc2)[C@H]1O`, in that order: more than 100 µM and 40.1%.
As to `CC(C)(O)CCc1c(O)cc(O)c2c1O[C@@H](c1cc3c(cc1O)OC(C)(C)C=C3)CC2=O`, half-maximal inhibition in test [1] (IC50) required 84.6 µM. The compound also registered an inhibition in test [2] of 52%.
For the compound `CC(C)=CCc1c(O)c(Cc2ccc(O)cc2)c(O)c2c1O[C@H](c1ccc(O)cc1)CC2=O`, in test [1], the midpoint of inhibition, the IC50, lay at 54.8 µM. Also, the inhibition in test [2] came out at 70.1%.
`COc1ccc(-c2coc3cc(O)cc(O)c3c2=O)cc1` [BIOCHANIN]: the 50% inhibitory concentration (IC50) in test [1] is more than 100 µM. In test [2], this compound yielded an inhibition of 6.1%.
In test [1], `CC(C)=CCc1c(O)cc2c(c1O)C(=O)C[C@@H](c1cc3c(cc1O)OC(C)(C)C=C3)O2` [CUDRAFLAVANONE A] displayed a 50% inhibitory concentration (IC50) of 6.5 µM. In addition, the inhibition in test [2] came out at 81.4%. For the same compound, in test [3], the inhibition result was “Active”.
Compound `O=C1c2c(O)cc(O)cc2O[C@H](c2ccc(O)cc2)[C@H]1O` [DIHYDROKAEMPFEROL] displayed an IC50 in test [1] of more than 100 µM. In test [2], this compound had an inhibition of 10.8%.
The corresponding values for `O=c1c(-c2ccc(O)cc2)coc2cc(O)cc(O)c12` [GENISTEIN] are more than 100 µM and 3.2%.
For `O=c1c(O)c(-c2ccc(O)cc2)oc2cc(O)cc(O)c12` [KAEMPFEROL], in that order: more than 100 µM and 37%.
With `O=c1c(O)c(-c2ccc(O)cc2O)oc2cc(O)cc(O)c12` [MORIN], the half-maximal inhibitory concentration (IC50) in test [1] is more than 100 µM. This compound also displayed an inhibition in test [2] of 26.3%.
`O=C1C[C@@H](c2ccc(O)cc2)Oc2cc(O)cc(O)c21` [NARINGENIN]: the IC50 in test [1] was more than 100 µM. For the same compound, the inhibition in test [2] stood at 25.2%.
In test [1], `CC(C)=CCc1c(O)cc(O)c2c1OC(c1ccc(O)cc1)CC2=O` (configuration not stated) [SOPHORAFLAVANONE B] returned a half-inhibitory concentration (IC50) of 76.9 µM. In test [2], the inhibition came out at 55.5%.
Regarding `CC(C)=CCc1c(O)cc2occ(-c3ccc(O)cc3)c(=O)c2c1O` [WIGHTEONE], in test [1], the IC50 was more than 100 µM. In test [2], this compound returned an inhibition of 49.6%.

The record behind these values is ChEMBL document CHEMBL3608203, “Benzylated and prenylated flavonoids from the root barks of Cudrania tricuspidata with pancreatic lipase inhibitory activity” (Bioorg Med Chem Lett, 2015).
